Measured values taken from patent US20160108008A1, “Substituted N-(Tetrazol-5-yl)- and N-(Triazol-5-yl)arylcarboxamide Compounds and Their Use as Herbicides” (BASF SE, priority 2013, published 2016).
Marks after values point to notes of the source that are not given here.

Key:
Type in all cases: in vivo
[1] = tested on: Setaria viridis; experiment: greenhouse post-emergence treatment, SETVI; details: scale 0-100
Excerpt: (§1) The culture containers used were plastic flowerpots containing loamy sand with approximately 3.0% of humus as the substrate. The seeds of the test plants were sown separately for each species.
(§2) For the post-emergence treatment, the test plants were first grown to a height of 3 to 15 cm, depending on the plant habit, and only then treated with the active ingredients which had been suspended or emulsified in water. For this purpose, the test plants were either sown directly and grown in the same containers, or they were first grown separately as seedlings and transplanted into the test containers a few days prior to treatment.
(§3) Depending on the species, the plants were kept at 10-25° C. or 20-35° C. The test period extended over 2 to 4 weeks. During this time, the plants were tended, and their response to the individual treatments was evaluated.
(§4) Evaluation was carried out using a scale from 0 to 100. 100 means no emergence of the plants, or complete destruction of at least the aerial moieties, and 0 means no damage, or normal course of growth. A good herbicidal activity is given at values of at least 70 and a very good herbicidal activity is given at values of at least 85.
(§5) The plants used in the greenhouse experiments belonged to the following species: […]

[2] = tested on: Chenopodium album; experiment: greenhouse post-emergence treatment, CHEAL; details: scale 0-100
Excerpt: as §1, §2, §3, §4
(§6) The plants used in the greenhouse experiments belonged to the following species:
(§7) Following representative compounds of formula I according to Table 9 were used in post-emergence treatments in greenhouse experiments (values labeled with * result from pre-emergence experiments): […]

[3] = tested on: Amaranthus retroflexus; experiment: greenhouse post-emergence treatment, AMARE; details: scale 0-100
Excerpt: as §1, §2, §3, §4, §6, §7

[4] = tested on: Amaranthus retroflexus; experiment: greenhouse pre-emergence treatment, AMARE; details: pre-emergence (value labeled *), scale 0-100
Excerpt: as §1
(§8) For the pre-emergence treatment, the active ingredients, which had been suspended or emulsified in water, were applied directly after sowing by means of finely distributing nozzles. The containers were irrigated gently to promote germination and growth and subsequently covered with transparent plastic hoods until the plants had rooted. This cover caused uniform germination of the test plants, unless this has been impaired by the active ingredients.
as §3, §4, §6, §7

[5] = tested on: Polygonum convolvulus; experiment: greenhouse post-emergence treatment, POLCO; details: scale 0-100
Excerpt: as §1, §2, §3, §4, §6, §7

[6] = tested on: Abutilon theophrasti; experiment: greenhouse pre-emergence treatment, ABUTH; details: pre-emergence (value labeled *), scale 0-100
Excerpt: as §1, §8, §3, §4, §6, §7

[7] = tested on: Agrostis spica-venti; experiment: greenhouse pre-emergence treatment, APESV; details: pre-emergence (value labeled *), scale 0-100
Excerpt: as §1, §8, §3, §4, §6, §7

[8] = tested on: Echinochloa crus-galli; experiment: greenhouse pre-emergence treatment, ECHCG; details: pre-emergence (value labeled *), scale 0-100
Excerpt: as §1, §8, §3, §4, §5

[9] = tested on: Echinochloa crus-galli; experiment: greenhouse post-emergence treatment, ECHCG; details: scale 0-100
Excerpt: as §1, §2, §3, §4, §6, §7

[10] = tested on: Abutilon theophrasti; experiment: greenhouse post-emergence treatment, ABUTH; details: 1000 g/ha, scale 0-100
Excerpt: as §1, §2, §3, §4, §5

[11] = tested on: Alopecurus agrestis; experiment: greenhouse post-emergence treatment, ALOMY; details: 250 g/ha, scale 0-100
Excerpt: as §1, §2, §3, §4, §5

Cc1c(C(=O)Nc2nnnn2C)cc(F)cc1S(C)(=O)=O [compound 7]
[%] damage to weed XI (SETVI) ([1]; 500 g/ha): 100% | [%] damage to weed VI (CHEAL) ([2]; 500 g/ha): 100% | [%] damage to weed III (AMARE) ([3]; 500 g/ha): 100%

Cc1c(C(=O)Nc2ncnn2C)cc(F)cc1S(C)(=O)=O [compound 10]
[%] damage to weed VI (CHEAL) ([2]; 250 g/ha): 100% | [%] damage to weed III (AMARE) ([4]; 250 g/ha): 95* % | [%] damage to weed IX (POLCO) ([5]; 250 g/ha): 100% | [%] damage to weed III (AMARE) ([3]; 250 g/ha): 100; %

CCSc1c(Cl)cc(F)c(C(=O)Nc2ncnn2C)c1Cl [compound 11]
[%] damage to weed VI (CHEAL) ([2]; 250 g/ha): 100% | [%] damage to weed IX (POLCO) ([5]; 250 g/ha): 100% | [%] damage to weed I (ABUTH) ([6]; 250 g/ha): 100* % | [%] damage to weed III (AMARE) ([3]; 250 g/ha): 100%

CCSc1c(Cl)cc(F)c(C(=O)Nc2nnnn2C)c1Cl [compound 12, 2,4-dichloro-3-ethylsulfanyl-6-fluoro-N-(1-methyltetrazol-5-yl)benzamide]
[%] damage to weed VI (CHEAL) ([2]; 250 g/ha): 100% | [%] damage to weed IX (POLCO) ([5]; 250 g/ha): 100% | [%] damage to weed I (ABUTH) ([6]; 250 g/ha): 100* % | [%] damage to weed III (AMARE) ([3]; 250 g/ha): 100%

CCS(=O)(=O)c1c(Cl)cc(F)c(C(=O)Nc2nnnn2C)c1Cl [compound 13, 2,4-Dichloro-3-ethylsulfonyl-6-fluoro-N-(1-methyltetrazol-5-yl)benzamide]
[%] damage to weed VI (CHEAL) ([2]; 250 g/ha): 100% | [%] damage to weed IX (POLCO) ([5]; 250 g/ha): 100% | [%] damage to weed I (ABUTH) ([6]; 250 g/ha): 100* % | [%] damage to weed III (AMARE) ([3]; 250 g/ha): 100%

CC[S+]([O-])c1c(Cl)cc(F)c(C(=O)Nc2ncnn2C)c1Cl (stereo not drawn) [compound 14]
[%] damage to weed VI (CHEAL) ([2]; 250 g/ha): 100% | [%] damage to weed IX (POLCO) ([5]; 250 g/ha): 100% | [%] damage to weed I (ABUTH) ([6]; 250 g/ha): 100* % | [%] damage to weed III (AMARE) ([3]; 250 g/ha): 100%

CCS(=O)(=O)c1c(Cl)cc(F)c(C(=O)Nc2ncnn2C)c1Cl [compound 15]
[%] damage to weed VI (CHEAL) ([2]; 500 g/ha): 100% | [%] damage to weed IX (POLCO) ([5]; 500 g/ha): 98% | [%] damage to weed III (AMARE) ([3]; 500 g/ha): 100% | [%] damage to weed IV (APESV) ([7]; 500 g/ha): 98* %

CC[S+]([O-])c1c(Cl)cc(F)c(C(=O)Nc2nnnn2C)c1Cl (stereo not drawn) [compound 16, 2,4-Dichloro-3-ethylsulfinyl-6-fluoro-N-(1-methyltetrazol-5-yl)benzamide]
[%] damage to weed VI (CHEAL) ([2]; 250 g/ha): 100% | [%] damage to weed IX (POLCO) ([5]; 250 g/ha): 100% | [%] damage to weed I (ABUTH) ([6]; 250 g/ha): 100* % | [%] damage to weed III (AMARE) ([3]; 250 g/ha): 100%

CCOc1c(Cl)cc(F)c(C(=O)Nc2ncnn2C)c1Cl [compound 17]
[%] damage to weed VII (ECHCG) ([8]; 500 g/ha): 85* % | [%] damage to weed VI (CHEAL) ([2]; 500 g/ha): 100% | [%] damage to weed VII (ECHCG) ([9]; 500 g/ha): 98; % | [%] damage to weed III (AMARE) ([3]; 500 g/ha): 100%

CCSc1c(Cl)cc(Cl)c(C(=O)Nc2ncnn2C)c1Cl [compound 61]
[%] damage to weed VI (CHEAL) ([2]; 500 g/ha): 100% | [%] damage to weed VII (ECHCG) ([9]; 500 g/ha): 98% | [%] damage to weed III (AMARE) ([3]; 500 g/ha): 100% | [%] damage to weed IV (APESV) ([7]; 500 g/ha): 98* %

CCCn1ncnc1NC(=O)c1c(F)cc(Cl)c(SC)c1Cl [compound 62]
[%] damage to weed VI (CHEAL) ([2]; 250 g/ha): 100% | [%] damage to weed VII (ECHCG) ([9]; 250 g/ha): 98% | [%] damage to weed III (AMARE) ([3]; 250 g/ha): 100% | [%] damage to weed IV (APESV) ([7]; 250 g/ha): 80* %

CCOc1c(Cl)cc(F)c(C(=O)Nc2nnnn2CC)c1Cl [compound 63]
[%] damage to weed VI (CHEAL) ([2]; 500 g/ha): 100% | [%] damage to weed III (AMARE) ([4]; 500 g/ha): 100* % | [%] damage to weed IX (POLCO) ([5]; 500 g/ha): 98% | [%] damage to weed III (AMARE) ([3]; 500 g/ha): 100; %

Cc1c(C(=O)Nc2nnnn2C)cc(F)c(S(C)(=O)=O)c1S(C)(=O)=O [compound 66]
[%] damage to weed I (ABUTH) [10]: 100% | [%] damage to weed VII (ECHCG) ([9]; 1000 g/ha): 100% | [%] damage to weed III (AMARE) ([4]; 1000 g/ha): 100* % | [%] damage to weed III (AMARE) ([3]; 1000 g/ha): 100; %

CSc1c(F)cc(C(=O)Nc2nnnn2C)c(C)c1SC [compound 67]
[%] damage to weed I (ABUTH) [10]: 100% | [%] damage to weed VII (ECHCG) ([9]; 1000 g/ha): 100%

COCCOc1c(Cl)cc(F)c(C(=O)Nc2ncnn2C)c1Cl [compound 69]
[%] damage to weed VI (CHEAL) ([2]; 250 g/ha): 100% | [%] damage to weed IX (POLCO) ([5]; 250 g/ha): 98% | [%] damage to weed I (ABUTH) ([6]; 250 g/ha): 100* % | [%] damage to weed III (AMARE) ([3]; 250 g/ha): 98%

COCCn1nnnc1NC(=O)c1c(F)cc(Cl)c(S(C)(=O)=O)c1Cl [compound 76]
[%] damage to weed VII (ECHCG) ([8]; 250 g/ha): 100* % | [%] damage to weed VI (CHEAL) ([2]; 250 g/ha): 100% | [%] damage to weed VII (ECHCG) ([9]; 250 g/ha): 100; % | [%] damage to weed III (AMARE) ([3]; 250 g/ha): 100%

CCS(=O)(=O)c1c(Cl)cc(F)c(C(=O)Nc2nnnn2CCOC)c1Cl [compound 80]
[%] damage to weed VI (CHEAL) ([2]; 125 g/ha): 100% | [%] damage to weed VII (ECHCG) ([9]; 125 g/ha): 100% | [%] damage to weed I (ABUTH) ([6]; 125 g/ha): 100* % | [%] damage to weed III (AMARE) ([3]; 125 g/ha): 100%

CSc1ccc(Cl)c(C(=O)Nc2ncnn2C)c1Cl [compound 81]
[%] damage to weed VI (CHEAL) ([2]; 250 g/ha): 100% | [%] damage to weed VII (ECHCG) ([9]; 250 g/ha): 98% | [%] damage to weed III (AMARE) ([3]; 250 g/ha): 100% | [%] damage to weed IV (APESV) ([7]; 250 g/ha): 95* %

COCCOc1ccc(Cl)c(C(=O)Nc2nnnn2C)c1Cl [compound 86]
[%] damage to weed VI (CHEAL) ([2]; 500 g/ha): 100% | [%] damage to weed VII (ECHCG) ([9]; 500 g/ha): 98% | [%] damage to weed I (ABUTH) ([6]; 500 g/ha): 65* % | [%] damage to weed III (AMARE) ([3]; 500 g/ha): 100% | [%] damage to weed IV (APESV) ([7]; 500 g/ha): 98* %

CSc1c(F)cc(Cl)c(C(=O)Nc2ncnn2C)c1F [compound 94]
[%] damage to weed VI (CHEAL) ([2]; 250 g/ha): 100% | [%] damage to weed VII (ECHCG) ([9]; 250 g/ha): 95% | [%] damage to weed III (AMARE) ([3]; 250 g/ha): 100% | [%] damage to weed IV (APESV) ([7]; 250 g/ha): 90* %

Cn1nnnc1NC(=O)c1c(F)cc(Cl)c([S+](C)[O-])c1Cl (stereo not drawn) [cpd. 6]
[%] damage to weed XI (SETVI) ([1]; 250 g/ha): 100% | [%] damage to weed VI (CHEAL) ([2]; 250 g/ha): 100% | [%] damage to weed II (ALOMY) [11]: 100%
